The values that follow come from patent US20130202698A1 (NANJING SANHOME PHARMACEUTICAL CO., LTD., priority 2005, published 2013).

For data set [1], the system named is spontaneous activities of mice. The conditions noted are these: both, mouse, in vivo, 3 mg/kg.
Data set [2] relates to motor balance and coordination. Particulars: both, mouse, in vivo, 3 mg/kg.
For data set [3], the system named is Remefline-induced convulsion. Briefly: Anticonvulsant effects on Remefline-induced convulsion in mice. It is filed as in vivo. The conditions noted are these: 2 mg/kg, positive control. As for the experimental part: In one experiment, the anticonvulsant effects of levo- and dextro-ornidazole against drug-induced convulsions in mice were compared. In four different animal convulsion models, mice were treated by four different seizure-inducing agents, including Remefline, Strychnine, isoniazid, thiosemicarbazide. Levo- or dextro-ornidazole was administered along with the seizure-inducing agents, and several outcomes were measured, including rate of convulsion, mortality rate, time to convulsion (latency), and time to death. Diazepam was used as a positive anticonvulsant control.
Mice are randomized into 4 treatment groups (n=10 with half male and half female): dextro- or levo-ornidazole (dosage 40, 80, 160 mg/kg), vehicle control group (15% propylene glycol in 0.9% sodium chloride, 20 mL/kg) and the positive control group. Animals are treated with known convulsion-inducing agents, followed by the drug or vehicle control given intravenously. The dose volume is 20 mL/kg with an infusion rate of 0.2 mL/10 seconds.

Data set [4] has as its system Strychnine-induced convulsion. The experiment in a line: Anticonvulsant effects on Strychnine-induced convulsion in mice. It is filed as in vivo. Particulars: 2 mg/kg, positive control, n=10. As for the experimental part:
(§1) Mice are randomized into 4 treatment groups (n=10 with half male and half female): dextro- or levo-ornidazole (dosage 40, 80, 160 mg/kg), vehicle control group (15% propylene glycol in 0.9% sodium chloride, 20 mL/kg) and the positive control group. Animals are treated with known convulsion-inducing agents, followed by the drug or vehicle control given intravenously. The dose volume is 20 mL/kg with an infusion rate of 0.2 mL/10 seconds. The anticonvulsant effects are observed and recorded (see Tables 2-6).

In data set [5] the test system is isoniazid-induced convulsion. Briefly: Anticonvulsant effects on isoniazid-induced convulsion in mice. It is filed as in vivo. The conditions noted are these: 2 mg/kg, positive control, Mean ± SD, n=10. As for the experimental part: as §1
Data set [6] deals with thiosemicarbazide-induced convulsion. The experiment in a line: Anticonvulsant effects on thiosemicarbazide-induced convulsion in mice. It is filed as in vivo. The conditions noted are these: 2 mg/kg, positive control, n=10. As for the experimental part:
as §1

Data set [7] has as its system righting reflex. Briefly: Hypnotic effect, loss of righting reflex. It is filed as in vivo. Particulars: mice, positive control, 40 mg/kg (Table 9), 10 animals.

Like-named read-outs stand apart in the source and are kept apart here. Marks after values point to notes of the source that are not given here.

`CN(C)CCCN1c2ccccc2Sc2ccc(Cl)cc21` [Chlorpromazine]: the “Spontaneous Activities (per 5 min)” value was determined as 5 ± 2 per 5 min in data set [1] (0.5 h); 6 ± 4 per 5 min in data set [1] (1 h); 13 ± 6 per 5 min in data set [1] (2 h); 21 ± 9 per 5 min in data set [1] (3 h); 35 ± 9 per 5 min in data set [1] (4 h). Also, the “Number of Animals Fall Off” value in data set [2] (0.5 h) stood at 10; in data set [2] (1 h), 10; in data set [2] (2 h) it was 10; in data set [2] (3 h), 9; in data set [2] (4 h), 5.

For `CN1C(=O)CN=C(c2ccccc2)c2cc(Cl)ccc21` [Diazepam], the “Rate of Convulsion” value in data set [3] (n=10) was 0/10**; in data set [6] it was 2/10**. For the same compound, the “Mortality Rate” value is listed as 0/10** in data set [3] (n=10, 2 mg/kg); 0/10 in data set [3] (n=10, listed as diazepam); 0/10** in data set [4]; 0/10** in data set [6]. For the same compound, the “Convulsion Latency” value in data set [5] is 57.4 ± 9.7 min. In addition, in data set [5], the “Time to Death” value is reported as 79.0 ± 12.9 min.

`CCCC(C)C1(CC)C(=O)NC(=O)NC1=O` (stereo not shown) [Pentobarbital, Sodium pentobarbital]: the “Number of animals Loss of Righting Flex 30 min Post-dose” value in data set [7] is on record as 10**.
